# Data reported in patent publication US8535617B2, “Blood cell barrier for a lateral flow device” (Kimberly-Clark Worldwide, Inc., priority 2007, dated 2013).
# Assays:
# fresh human blood [1] = assay: Blood separation on nitrocellulose lateral flow membrane strips with a linoleic acid line
# Method: (§1) A circle of Whatman filter paper (Qualitative 18.5 cm) was cut into strips (16 cm×2 cm). A thin line of linoleic acid was placed 8 cm from the bottom end of the strip using a syringe with needle, to lay down a thin line of liquid (approximately 5-10 μl). Next, a drop (20 μl) of fresh human blood was placed onto the strip 4 cm up from the bottom. A control strip was prepared in a similar manner except no linoleic acid was placed on the control strip. The strips were then attached to a glass rod, being 6 cm away from each other, using scotch tape. In a manner similar to paper chromatography, the strips were placed into a tall beaker (2 liter volume) containing deionized water (50 ml) in such a manner that the bottom end of the paper strips just entered the water. The water wicked up the vertically hanging strips.
# The experiment described in Example 1 was repeated but using nitrocellulose lateral flow membrane strips (Bangs Laboratories Inc., Fishers Ind.) in place of the paper strips. The same procedure was conducted and at the end of the flow period (20 minutes) the strips were allowed to dry. […] In contrast, the control strip allowed the blood to travel up the entire length of the strip. […]
# fresh human blood [2] = assay: Blood separation on filter paper strips with a linoleic acid line, eluted with water; conditions: Whatman filter paper strip
# Method: as §1
# The system was allowed to run for another 20 minutes after which time the strips were taken out and allowed to air dry. Both strips were then sprayed with a ninhydrin spray to detect amino acids. […] The control had traces present along the length and a strong presence where the blood spot had stopped.
structure (smiles),measurement,setting,value
"CCCCCC=CCC=CCCCCCCCC(=O)O [linoleic acid, 9,12-octadecadienoic acid]",movement of blood spot on strip,"fresh human blood [1]; nitrocellulose lateral flow membrane strip, flow period 20 minutes",halted at the linoleic acid line
same,phenolphthalin / 3% hydrogen peroxide spot test for dried blood and hemoglobin,"fresh human blood [1]; nitrocellulose strip, beyond the linoleic acid line, visual pink color",no pink color developed
same,movement of blood spot on strip,"fresh human blood [2]; 20 μl blood, line of approximately 5-10 μl linoleic acid, eluted by deionized water",halt at the line where the linoleic acid had been placed
same,ninhydrin spray detection of amino acids,"fresh human blood [2]; after air drying, visual purple color",presence of amino acids after the line
